The text below walks through data of patent publication US20250000819A1, “Anti-hypoxic/anoxic injury use of a magnolol and/or honokiol aromatic ring amino-substituted derivative, and a pharmaceutical composition” (BEIJING HONGHUI MEDITECH CO., LTD., priority 2021, published 2025).

What all share (assay type): in vivo, rat
In test [1] the test system is SD male rats, hypoxia (the oxygen content was 11%) treatment. Kind of test: Blood gas analysis of femoral artery blood in hypoxia-treated rats. The method, then:
2. Animal model: SPF-grade SD male rats, 220-240 g of the weight, and hypoxia (the oxygen content was 11%) treatment. 3. Experimental grouping: a hypoxia treatment control group, there were 4 rats in each group; and a hypoxia treatment administration group, there were 4 rats in each group. 4. Administration mode: before the hypoxia treatment, a single intravenous injection was administered to each rat in the hypoxia treatment administration group. 5. […] 2. Animal model: SPF-grade SD male rats, 220-240 g of the weight, and hypoxia (the oxygen content was 11%) treatment. 3. Experimental grouping: a hypoxia treatment control group, there were 4 rats in each group; and a hypoxia treatment administration group, there were 4 rats in each group. 4. Administration mode: before the hypoxia treatment, a single intravenous injection was administered to each rat in the hypoxia treatment administration group. 5. […] 2. Animal model: SPF-grade SD male rats, 220-240 g of the weight, and hypoxia (the oxygen content was 11%) treatment. 3. Experimental grouping: a hypoxia treatment control group, there were 4 rats in each group; and a hypoxia treatment administration group, there were 4 rats in each group. 4. Administration mode: single gavage administration of each rat in the hypoxic treatment group prior to hypoxic treatment. 5. […] 2. Animal model: SPF-grade SD male rats, 220-240 g of the weight, and hypoxia (the oxygen content was 11%) treatment. 3. Experimental grouping: a hypoxia treatment control group, there were 4 rats in each group; and a hypoxia treatment administration group, there were 4 rats in each group. 4. Administration mode: before the hypoxia treatment, a single intravenous injection was administered to each rat in the hypoxia treatment administration group. 5. […] 2. Animal model: SPF-grade SD male rats, 220-240 g of the weight, and hypoxia (the oxygen content was 11%) treatment. 3. Experimental grouping: a hypoxia treatment control group, there were 4 rats in each group; and a hypoxia treatment administration group, there were 4 rats in each group. 4. Administration mode: before the hypoxia treatment, a single intravenous injection was administered to each rat in the hypoxia treatment administration group. 5. […]

Test [2] shares this test system. Put plainly: Respiratory rate evaluated during blood collection in hypoxia-treated rats. Particulars: p<0.05. The protocol: 2. Animal model: SPF-grade SD male rats, 220-240 g of the weight, and hypoxia (the oxygen content was 11%) treatment. 4. Administration mode: before the hypoxia treatment, a single intravenous injection was administered to each rat in the hypoxia treatment administration group. 6. Respiratory rate: the rat respiratory rate was evaluated during blood collection. 2. Animal model: SPF-grade SD male rats, 220-240 g of the weight, and hypoxia (the oxygen content was 11%) treatment. 4. Administration mode: before the hypoxia treatment, a single intravenous injection was administered to each rat in the hypoxia treatment administration group. 6. Respiratory rate: the rat respiratory rate was evaluated during blood collection. 2. Animal model: SPF-grade SD male rats, 220-240 g of the weight, and hypoxia (the oxygen content was 11%) treatment. 4. Administration mode: single gavage administration of each rat in the hypoxic treatment group prior to hypoxic treatment. 6. Respiratory rate: the rat respiratory rate was evaluated during blood collection. 2. Animal model: SPF-grade SD male rats, 220-240 g of the weight, and hypoxia (the oxygen content was 11%) treatment. 4. Administration mode: before the hypoxia treatment, a single intravenous injection was administered to each rat in the hypoxia treatment administration group. 2. Animal model: SPF-grade SD male rats, 220-240 g of the weight, and hypoxia (the oxygen content was 11%) treatment. 4. Administration mode: before the hypoxia treatment, a single intravenous injection was administered to each rat in the hypoxia treatment administration group. 6. Respiratory rate: the rat respiratory rate was evaluated during blood collection.

Test [3] deals with lung tissues of SD rats, hypoxia (the oxygen content was 11%) treatment. Put plainly: H&E staining / pathological analysis of lung tissue paraffin sections after hypoxia treatment. Conditions: 1 mg/kg single intravenous injection, after 24 h of hypoxia treatment. The method, then: 2. Animal model: SPF-grade SD male rats, 220-240 g of the weight, and hypoxia (the oxygen content was 11%) treatment. 4. Administration mode: before the hypoxia treatment, a single intravenous injection was administered to each rat in the hypoxia treatment administration group. 7. Hematoxylin-eosin (H&E) staining: Lung tissues of the hypoxia treatment (24 h) control group and the hypoxia treatment (24 h) administration group (dose: 1 mg/kg) were taken for paraffin section preparation, staining, and case analysis. 1) Paraffin sections were dewaxed to water: the sections were sequentially placed in xylene I for 20 min, xylene II for 20 min, anhydrous ethanol I for 5 min, anhydrous ethanol II for 5 min, and 75% alcohol for 5 min, and finally washed with tap water. 2) Hematoxylin staining: the sections were placed in hematoxylin staining solution and stained for 3-5 min, then washed with the tap water, and differentiated with differentiation solution, then washed with the tap water. It returned to blue by blue returning solution, and finally it was washed with running water. 3) Eosin staining: the sections were sequentially dehydrated with 85% and 95% of gradient alcohol for 5 min respectively, and placed in eosin staining solution and stained for 5 min. […]

`C=CCc1cc(N)c(O)c(-c2ccc(O)c(CC=C)c2)c1` [Compound 1, 3′, 5-diallyl-3-amino-[1,1′-biphenyl]-2,4′-diol]: in test [1] (0.58 mg/kg single intravenous injection before hypoxia, after 24 h of hypoxia treatment, p=0.0012), the “blood oxygen partial pressure (PO2) vs control group” value is reported as “significantly higher than those of the control group”. In test [1] (0.58 mg/kg single intravenous injection before hypoxia, after 24 h of hypoxia treatment, p=0.019), the “blood oxygen saturation (SO2) vs control group” value was “significantly higher than those of the control group”. Further, the “respiratory rate (RR) vs control group” value in test [2] (0.58 mg/kg single intravenous injection, after 24 h of hypoxia treatment) is “lower than that of the control group, and the different was significant”.

`C=CCc1cc(NC(=O)[C@@H](N)CCCCN)c(O)c(-c2ccc(O)c(CC=C)c2)c1.Cl.Cl` [Compound 2, (S)-2,6-diamino-N-(3′,5-diallyl-2,4′-dihydroxy-[1,1′-biphenyl]-3-yl) hexanamide dihydrochloride]: the “blood oxygen saturation (SO2) vs control group” value in test [1] (0.25 mg/kg single intravenous injection, after 1 h of hypoxia treatment, p=0.023) was “higher than that of the control group, and the difference was significant”; in test [1] (0.25 mg/kg single intravenous injection, after 6 h of hypoxia treatment, p=0.015), “higher than those of the control group, and the difference was significant”; in test [1] (1 mg/kg single intravenous injection, after 6 h of hypoxia treatment, p=0.0012), “higher than that of the control group, and the difference was significant”; in test [1] (1 mg/kg single intravenous injection, after 24 h of hypoxia treatment, p=0.001), “higher than those of the control group, and the difference was significant”; in test [1] (40 mg/kg single gavage (intragastric) administration, after 24 h of hypoxia treatment, p=0.016) it was “higher than those of the control group, and the difference was significant”. The “blood oxygen partial pressure (PO2) vs control group” value is “higher than that of the control group, but the difference was not significant” in test [1] (0.25 mg/kg single intravenous injection, after 1 h of hypoxia treatment, p=0.059); “higher than those of the control group, and the difference was significant” in test [1] (0.25 mg/kg single intravenous injection, after 6 h of hypoxia treatment, p=0.018); “higher than that of the control group, and the difference was significant” in test [1] (1 mg/kg single intravenous injection, after 6 h of hypoxia treatment, p=0.003); “higher than those of the control group, and the difference was significant” in test [1] (1 mg/kg single intravenous injection, after 24 h of hypoxia treatment, p=0.0012); “higher than those of the control group, and the difference was significant” in test [1] (40 mg/kg single gavage (intragastric) administration, after 24 h of hypoxia treatment, p=0.036). For the same compound, the “lung tissue injuries (H&E pathological analysis) vs control group” value in test [3] was “able to alleviate the tissue injuries caused by hypoxia (anoxia)”. Further, the “respiratory rate (RR) vs control group” value in test [2] (1 mg/kg single intravenous injection, after 6 h of hypoxia treatment) was “lower than that of the control group, and the difference was significant”; in test [2] (1 mg/kg single intravenous injection, after 24 h of hypoxia treatment), “lower than that of the control group, and the difference was significant”; in test [2] (40 mg/kg single gavage (intragastric) administration, after 24 h of hypoxia treatment), “lower than that of the control group, and the difference was significant”.

Regarding `C=CCc1cc(NC(=O)[C@@H](N)CCSC)c(O)c(-c2ccc(O)c(CC=C)c2)c1.Cl` [Compound 3, (S)-2-amino-N-(3′,5-diallyl-2,4′-dihydroxy-[1,1′-biphenyl]-3-yl)-4-(methylthio) butanamide hydrochloride], in test [1] (0.93 mg/kg single intravenous injection, after 24 h of hypoxia treatment, p=0.06), the “blood oxygen saturation (SO2) vs control group” value is on record as “higher than that of the control group”. Besides, in test [2] (0.93 mg/kg single intravenous injection, after 24 h of hypoxia treatment), the “respiratory rate (RR) vs control group” value was “lower than that of the control group, and the difference was significant”.

Consider `C=CCc1cc(NC(C)=O)c(O)c(-c2ccc(O)c(CC=C)c2)c1` [Compound 4, N-(3′,5-diallyl-2,4′-dihydroxy-[1,1′-biphenyl]-3-yl) acetamide], for which the “blood oxygen saturation (SO2) vs control group” value in test [1] (0.67 mg/kg single intravenous injection, after 24 h of hypoxia treatment, p=0.0023) is listed as “higher than those of the control group”. Moreover, in test [1] (0.67 mg/kg single intravenous injection, after 24 h of hypoxia treatment, p=0.023), the “blood oxygen partial pressure (PO2) vs control group” value is “higher than those of the control group”. For the same compound, in test [2] (0.67 mg/kg single intravenous injection, after 24 h of hypoxia treatment), the “respiratory rate (RR) vs control group” value was “lower than that of the control group, and the difference was significant”.
